Some test systems named below: PC-3 prostate; HL-60(TB) leukemia; MDA-MB-231 breast; MOLT-4 leukemia; DU-145 prostate; SK-MEL-28 melanoma; ACHN renal; SW-620 colon; SF-295 CNS; OVCAR-8 ovarian.
Holding throughout (test): growth of human tumour cells (NCI), 48 h

From PubChem BioAssay (NCI) come the findings set out here.

Molecules are shown by their SMILES.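 A five-concentration, 48-hour dose response in 96-well plates underlies each endpoint, interpolated linearly between surrounding concentrations. GI50: concentration for 50% inhibition of growth. TGI is the concentration that stops growth completely.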

As for `CCOC(=O)C1=C(C)NC(=O)NC1CN1C(=O)c2ccccc2C1=O` (stereo not given), the GI50 with PC-3 prostate, with HL-60(TB) leukemia, in the test with MDA-MB-231 breast, in the test on MOLT-4 leukemia, with DU-145 prostate and with SK-MEL-28 melanoma was greater than 100 µM each time. The GI50 with ACHN renal, in the test with SW-620 colon, in the test on SF-295 CNS and in the test with OVCAR-8 ovarian was greater than 100 µM in each case. Moreover, the TGI with PC-3 prostate, in the test with HL-60(TB) leukemia, in the test with MDA-MB-231 breast, with MOLT-4 leukemia, in the test on DU-145 prostate and in the test with SK-MEL-28 melanoma was greater than 100 µM throughout. For the same compound, the TGI with ACHN renal, in the test with SW-620 colon, with SF-295 CNS and in the test on OVCAR-8 ovarian was greater than 100 µM throughout.

With `N#Cc1c(NC(=O)c2ccc(F)cc2)sc2c1CCCC2`, the GI50 in the test with PC-3 prostate, in the test on HL-60(TB) leukemia, in the test on MDA-MB-231 breast, in the test on MOLT-4 leukemia, in the test with DU-145 prostate and in the test with SK-MEL-28 melanoma was greater than 25 µM each time. Also, the GI50 with ACHN renal, in the test on SW-620 colon, with SF-295 CNS and with OVCAR-8 ovarian was greater than 25 µM each time. Besides, the TGI in the test with PC-3 prostate, in the test with HL-60(TB) leukemia, in the test with MDA-MB-231 breast, in the test on MOLT-4 leukemia, with DU-145 prostate and with SK-MEL-28 melanoma was greater than 25 µM in each case. Moreover, the TGI in the test on ACHN renal, in the test with SW-620 colon, with SF-295 CNS and in the test with OVCAR-8 ovarian was greater than 25 µM throughout.

On to `CCCCNS(=O)(=O)c1n[nH]c(=O)[nH]c1=O`, for which the TGI in the test with PC-3 prostate, in the test with HL-60(TB) leukemia, in the test with MDA-MB-231 breast, in the test on MOLT-4 leukemia, with DU-145 prostate and with SK-MEL-28 melanoma was greater than 100 µM throughout. The TGI with ACHN renal, in the test on SW-620 colon, in the test with SF-295 CNS and in the test with OVCAR-8 ovarian was greater than 100 µM each time.

For `COc1ccc(C(=NN=C(N)N)c2ccc(OC)cc2)cc1`, the GI50 in the test with PC-3 prostate was 3.04 µM; in the test on HL-60(TB) leukemia, 2.53 µM; in the test on MDA-MB-231 breast it was 3.88 µM; with MOLT-4 leukemia, 3.89 µM; with DU-145 prostate it was 2.6 µM; in the test with SK-MEL-28 melanoma it was 5.7 µM. Also, the GI50 in the test on ACHN renal is 3.49 µM; in the test on SW-620 colon it was 3.11 µM; in the test with SF-295 CNS, 2.72 µM; in the test on OVCAR-8 ovarian, 5.29 µM. For the same compound, the TGI in the test with PC-3 prostate was 14.4 µM; with HL-60(TB) leukemia it was 8.48 µM; with MDA-MB-231 breast, 17.1 µM; with MOLT-4 leukemia it was 16.7 µM; with DU-145 prostate, 10.8 µM; in the test on SK-MEL-28 melanoma, 19.1 µM. The TGI in the test on ACHN renal came out at 13.3 µM; in the test with SW-620 colon it was 12.4 µM; with SF-295 CNS it was 11.2 µM; in the test on OVCAR-8 ovarian, 21.1 µM.

Take `COC(=O)[C@]12CC[C@@H](C)[C@H](C)[C@@H]1C1=CC[C@@H]3[C@@]4(C)C[C@@H](OC(=O)/C=C/c5ccccc5)[C@H](O)[C@@](C)(CO)[C@@H]4[C@H](O)C[C@@]3(C)[C@]1(C)CC2`: the GI50 with PC-3 prostate is 2.55 µM; with HL-60(TB) leukemia it was 2.63 µM; with MDA-MB-231 breast, 1.95 µM; in the test on MOLT-4 leukemia, 2.27 µM; with DU-145 prostate it was 2.39 µM; in the test with SK-MEL-28 melanoma it was 2.69 µM. In addition, the GI50 was 3.11 µM in the test on ACHN renal, 1.93 µM in the test with SW-620 colon, 2.27 µM in the test with SF-295 CNS and 3.2 µM in the test on OVCAR-8 ovarian. The TGI in the test on PC-3 prostate amounted to 8.93 µM; with HL-60(TB) leukemia it was 6.51 µM; in the test on MDA-MB-231 breast, 4.17 µM; in the test on MOLT-4 leukemia it was 7.31 µM; in the test on DU-145 prostate it was 5.83 µM; with SK-MEL-28 melanoma, 9.36 µM. The TGI in the test with ACHN renal amounted to 11.4 µM; in the test with SW-620 colon, 4.2 µM; in the test on SF-295 CNS, 5.75 µM; with OVCAR-8 ovarian, 11.5 µM.

Regarding `N#CC1=C(N)NC(=S)NC12Nc1ccccc1S2` (stereo not given), the GI50 with PC-3 prostate is 22 µM; in the test with HL-60(TB) leukemia it was 33.6 µM; in the test with MDA-MB-231 breast it was 16.4 µM; in the test on MOLT-4 leukemia, 28.8 µM; in the test on DU-145 prostate, 17.2 µM; in the test on SK-MEL-28 melanoma, 26.3 µM. Moreover, the GI50 was 21.8 µM in the test with ACHN renal, 36.7 µM in the test with SW-620 colon, 11.5 µM with SF-295 CNS and 39.6 µM in the test on OVCAR-8 ovarian. Moreover, the TGI in the test on PC-3 prostate is 71.7 µM; with HL-60(TB) leukemia, 79.2 µM; in the test on MDA-MB-231 breast, 70.6 µM; with MOLT-4 leukemia, greater than 100 µM; in the test with DU-145 prostate, greater than 100 µM; in the test with SK-MEL-28 melanoma it was 66.9 µM. The TGI in the test on ACHN renal was 74.3 µM; in the test on SW-620 colon, greater than 100 µM; in the test with SF-295 CNS it was 31.7 µM; with OVCAR-8 ovarian, greater than 100 µM.

With `Cc1ccc2cccc(OC(=O)Nc3cccc(C(F)(F)F)c3)c2n1`, the GI50 in the test on PC-3 prostate is 2.74 µM; with HL-60(TB) leukemia, 5.41 µM; in the test with MDA-MB-231 breast, 2.37 µM; in the test on MOLT-4 leukemia it was 3.61 µM; in the test on DU-145 prostate it was 3.95 µM; in the test with SK-MEL-28 melanoma, 4.34 µM. For the same compound, the GI50 in the test with ACHN renal is 3.04 µM; with SW-620 colon, 3.46 µM; with SF-295 CNS it was 2.5 µM; in the test on OVCAR-8 ovarian it was 3.5 µM. The TGI in the test with PC-3 prostate was 9.79 µM; in the test with HL-60(TB) leukemia, 38.4 µM; with MDA-MB-231 breast, 7.26 µM; in the test on MOLT-4 leukemia it was 24.2 µM; with DU-145 prostate it was 82.4 µM; with SK-MEL-28 melanoma, 16.3 µM. Further, the TGI in the test on ACHN renal stood at 12.4 µM; with SW-620 colon, 13.3 µM; with SF-295 CNS it was 7.25 µM; in the test on OVCAR-8 ovarian it was 14.9 µM.

In the case of `COc1cc(-c2nc3sc(C)cn3c2/C=C2\C(=O)Nc3ccccc32)c(Br)c(OC)c1OC`, the GI50 in the test on PC-3 prostate is 32.2 µM; in the test with HL-60(TB) leukemia, 29.2 µM; with MDA-MB-231 breast it was 31.6 µM; in the test on MOLT-4 leukemia, 36.4 µM; in the test on DU-145 prostate, 28.5 µM; with SK-MEL-28 melanoma, 39.1 µM. Besides, the GI50 was 32.1 µM in the test with ACHN renal, 30.6 µM with SW-620 colon, 15.6 µM with SF-295 CNS and greater than 100 µM with OVCAR-8 ovarian. The TGI in the test with PC-3 prostate was greater than 100 µM; with HL-60(TB) leukemia it was greater than 100 µM; in the test on MDA-MB-231 breast, 97 µM; with MOLT-4 leukemia, greater than 100 µM; in the test on DU-145 prostate it was 72.4 µM; in the test with SK-MEL-28 melanoma, greater than 100 µM. Besides, the TGI in the test on ACHN renal was greater than 100 µM; in the test on SW-620 colon, greater than 100 µM; in the test on SF-295 CNS, 40.7 µM; in the test with OVCAR-8 ovarian it was greater than 100 µM.
